Values after ≈ are worked out from the molar mass of the structure shown. Positions of bridges follow the written chain, without caps; N, C: chain ends. Residues, ends and D or L forms follow the SMILES beside them. Chains are numbered I, II in the order given.

This is an account of results in PMC11201828, “A Novel Dimeric Short Peptide Derived from α-Defensin-Related Rattusin with Improved Antimicrobial and DNA-Binding Activities” (Biomolecules, 2024).

The target of experiment [1] is F2 (rattusin fragment, residues 12-18, dimeric hairpin loop region) (rat). The experiment can be described thus: RP-HPLC; monomeric F2 (before disulfide bonding) incubated in MIC buffer; formation of the disulfide-bonded dimer monitored by RP-HPLC.
The next experiment has as its system MRSA CCARM 3089. Type of experiment: cell-based, methicillin-resistant Staphylococcus aureus. As to conditions: CCARM 3089, 24 h. As to the method: (§1) The minimal inhibitory concentrations (MICs) of the peptides were determined following the broth microdilution method recommended by the Clinical and Laboratory Standards Institute (CLSI). Briefly, bacteria in their mid-logarithmic growth phase were diluted in Mueller–Hinton broth (MHB) (Difco, Franklin Lakes, NJ, USA) and aliquoted into a 96-well microtiter plate at a density of 4 × 10^6 CFU/well. The assay included both Gram-negative bacteria (Escherichia coli, Salmonella typhimurium, and Pseudomonas aeruginosa) and Gram-positive bacteria (Bacillus subtilis, Staphylococcus aureus, and Staphylococcus epidermidis), as well as methicillin-resistant Staphylococcus aureus strains (MRSA: CCARM 3089, CCARM 3090, CCARM 3095). The samples were subjected to a two-fold serial dilution before being added to the wells, and the plate was incubated at 37 °C for 24 h. The MIC was defined as the lowest peptide concentration that prevented visible bacterial growth. All experiments were conducted in triplicate and included appropriate growth and sterility controls.

Another experiment has as its system MRSA CCARM 3090. Type of experiment: cell-based, methicillin-resistant Staphylococcus aureus. The conditions noted are these: CCARM 3090, 24 h. As to the method: as §1
The test system of another experiment is MRSA CCARM 3095. Format: cell-based, methicillin-resistant Staphylococcus aureus. The conditions noted are these: CCARM 3095, 24 h. How it is done:
as §1

A further experiment has as its system S. aureus cell membranes. The experiment can be described thus: SYTOX Green uptake assay. Type of experiment: cell-based, Staphylococcus aureus. As to conditions: 32 µM F2, 4 µM melittin, 16 µM buforin-2, Figure 3. As to the method: The membrane permeabilization activity of the peptides was determined using the SYTOX Green uptake assay, as described previously. S. aureus was cultured in LB broth at 37 °C until it reached an optical density (O.D.) at 600 nm of 0.4, indicative of the mid-logarithmic phase. The cells were then washed and diluted to an O.D. 600 of 0.05 using 1× PBS buffer. The dye (SYTOX Green nucleic acid stain) was added to the bacterial suspension at a concentration of […], and the mixture was incubated at 4 °C for 18 h with agitation in the dark. The SYTOX Green-treated bacteria were placed in a quartz cell, where they were simultaneously exposed to the positive control melittin (2× MIC), the negative control buforin-2 (2× MIC), and the F2 dimer (2× MIC). An F-4500 FL fluorescence spectrophotometer (Shimadzu, Kyoto, Japan) was used to monitor fluorescence (excitation 485 nm, emission 520 nm).

For the next experiment, the system named is plasmid DNA (pHIS2). The experiment can be described thus: DNA-binding gel retardation assay. The conditions noted are these: plasmid pHIS2 145 μg/mL, 37 °C, 1 h, 1% agarose gel; Figure 5. How it is done:
We evaluated the DNA-binding ability of F2 and F2 (C4S) monomeric peptides using gel retardation experiments. The concentration of plasmid DNA (pHIS2) was fixed at 145 μg/mL. The peptide was serially diluted in a binding buffer consisting of 10 mM Tris-HCl (pH 8.0), 5% glucose, 50 μg/mL BSA, 1 mM EDTA, and 20 mM KCl. This solution was then mixed with the DNA and incubated at 37 °C for 1 h. After incubation, the DNA–peptide mixture was stained with DNA gel loading dye. The samples were analyzed using 1% agarose gel electrophoresis in 0.5× TAE buffer. Plasmid bands were detected with a UV illuminator (Bio-Rad, Hercules, CA, USA).

A further experiment concerns Staphylococcus aureus. Format: cell-based. As to conditions: 24 h. How it is done: as §1
The subject of another experiment is Pseudomonas aeruginosa. Format: cell-based. As to conditions: 24 h. How it is done:
as §1

In a further experiment the test system is Salmonella typhimurium. Type of experiment: cell-based. As to conditions: murium, 24 h. As to the method:
as §1

The next experiment deals with bacterial strains. Format: cell-based. The conditions noted are these: strain not given; see Tables 1 and 2. How it is done:
as §1

A further experiment concerns Bacillus subtilis. Type of experiment: cell-based. The conditions noted are these: 24 h. How it is done:
as §1

For the next experiment, the system named is Escherichia coli. Type of experiment: cell-based. As to conditions: 24 h. How it is done:
as §1

The test system of experiment [2] is Staphylococcus epidermidis. Format: cell-based. As to conditions: 24 h. As to the method: as §1
Another experiment has as its system E. coli ML-35. Nature of the experiment: ONPG hydrolysis assay (inner membrane permeability). Type of experiment: cell-based, Escherichia coli. The conditions noted are these: 32 µM F2, 4 µM melittin, 16 µM buforin-2, Figure 4. How it is done:
The internal membrane permeability was assessed using the ONPG hydrolysis assay, as described previously. E. coli ML-35p, which constitutively expresses cytoplasmic β-galactosidase and periplasmic β-lactamase, is resistant to ampicillin and deficient in lactose permease. E. coli ML-35 was incubated in LB broth containing ampicillin at 37 °C until the optical density (O.D.) at 600 nm reached 1.0. The cells were then washed with a buffer consisting of 97% 1× PBS and 3% LB and diluted to an O.D. 600 of 0.4 in the same buffer. A mixture of 50 μL of serially diluted peptide and 20 μL of dye (ONPG, final concentration 3 mM) was added to 100 μL of the bacterial suspension in a sterilized 96-well plate. Melittin served as a positive control, while buforin-2 was used as a negative control. The hydrolysis of ONPG was measured using a PHOMO Elisa reader (Autobio, Zhengzhou, China) at 405 nm for each time period.

Experiment [3] relates to S. aureus cytoplasmic membrane. The experiment can be described thus: Membrane depolarization assay, DiSC3-(5) dye. Format: cell-based, Staphylococcus aureus. As to conditions: intact S. aureus; 32 µM F2, 4 µM melittin, 16 µM buforin-2; peptide added after 300 s; Figure 2. How it is done: The cytoplasmic membrane depolarization activity of the peptides was assessed using the membrane-potential-sensitive dye DiSC3-(5), following methodologies previously described in the literature. Staphylococcus aureus was cultured in Luria–Bertani (LB) broth at 37 °C until reaching an optical density (O.D.) at 600 nm of 0.3–0.4, indicative of mid-logarithmic phase growth. The cells were then washed with a buffer containing 20 mM glucose and 5 mM HEPES, and the cell suspension was diluted to an O.D. 600 of 0.05 in the same buffer. Potassium chloride (KCl) was added to achieve a final concentration of 100 mM to equilibrate potassium ion levels. The concentrations used for each peptide in our membrane depolarization assays were based on their respective MICs: 32 µM for F2, 4 µM for Melittin, and 16 µM for Buferin-2.
Fluorescence was monitored using an F-4500 FL fluorescence spectrophotometer (Shimadzu, Kyoto, Japan) with excitation and emission wavelengths set at 622 nm and 670 nm, respectively. Melittin, known for its membrane-disrupting properties, served as a positive control, while buforin-2, which translocates across membranes without causing depolarization, acted as a negative control. Both melittin and buforin-2 were tested at concentrations twice their minimal inhibitory concentration (MIC) levels.

By stoichiometry N is commonly meant a count of units in the complex or per binding partner. As to “F2 (rattusin fragment, residues 12-18, dimeric hairpin loop region) (peptide)”, the stoichiometry N in [1] came to 2.
What is called MIC is the smallest concentration in the dilution series that meets the test's criterion for growth inhibition. Turning to `CC(C)[C@H](NC(=O)[C@H](CCCNC(=N)N)NC(=O)[C@@H](N)CCCNC(=N)N)C(=O)N[C@@H](CSSC[C@H](NC(=O)[C@@H](NC(=O)[C@H](CCCNC(=N)N)NC(=O)[C@@H](N)CCCNC(=N)N)C(C)C)C(=O)N[C@@H](CCCNC(=N)N)C(=O)N[C@@H](CC(N)=O)C(=O)N[C@H](C(N)=O)[C@@H](C)O)C(=O)N[C@@H](CCCNC(=N)N)C(=O)N[C@@H](CC(N)=O)C(=O)N[C@H](C(N)=O)[C@@H](C)O` [F2] (I: H-RRVCRNT-NH2 / II: H-RRVCRNT-NH2; disulfide I:4-II:4; N-terminus assumed), the MIC with MRSA CCARM 3089 is 58 µg/mL (≈ 32.1 µM); in the experiment with MRSA CCARM 3090, 116 µg/mL (≈ 64.3 µM); with MRSA CCARM 3095, 58 µg/mL (≈ 32.1 µM); in the experiment with Staphylococcus aureus, 58 µg/mL (≈ 32.1 µM); with Pseudomonas aeruginosa, 15 µg/mL (≈ 8.31 µM); against Salmonella typhimurium it was 15 µg/mL (≈ 8.31 µM). The “MIC” value is 15 µg/mL (≈ 8.31 µM) against bacterial strains, 29 µg/mL (≈ 16.1 µM) in the experiment with Bacillus subtilis, 15 µg/mL (≈ 8.31 µM) in the experiment on Escherichia coli and 15 µg/mL (≈ 8.31 µM) in experiment [2]. In addition, the “SYTOX Green uptake (fluorescence intensity)” value in the experiment with S. aureus cell membranes was “did not show a similar increase in fluorescence intensity”. Further, the “peptide concentration giving DNA band retardation” value with plasmid DNA (pHIS2) amounted to 4 µM. For the same compound, in the experiment on E. coli ML-35, the “ONPG hydrolysis (absorbance at 405 nm)” value was “did not alter the absorbance”. The “cytoplasmic membrane depolarization (DiSC3-(5) fluorescence)” value in experiment [3] was “did not cause any membrane depolarization”.
